{
  "source": "PubChem BioAssay AID1671331",
  "biological_target": "Serine/threonine-protein kinase Nek6 (Homo sapiens) (UniProt Q9HC98)",
  "sequence (Q9HC98 whole entry, looked up)": "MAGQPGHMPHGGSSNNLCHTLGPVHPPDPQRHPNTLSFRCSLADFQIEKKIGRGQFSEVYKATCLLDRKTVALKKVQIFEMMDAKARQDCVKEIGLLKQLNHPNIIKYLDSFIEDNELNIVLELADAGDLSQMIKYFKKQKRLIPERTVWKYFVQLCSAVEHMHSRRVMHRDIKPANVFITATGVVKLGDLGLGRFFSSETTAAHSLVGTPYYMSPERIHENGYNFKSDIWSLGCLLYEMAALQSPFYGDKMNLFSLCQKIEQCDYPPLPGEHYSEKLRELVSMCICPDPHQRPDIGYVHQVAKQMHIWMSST",
  "test": "inhibition of NEK6 serine/threonine kinase activity – biochemical, Z'-LYTE FRET, direct format, recombinant human, dose response (AID 1671331)",
  "data": [
    {"smiles": "CN1C(=O)C2(Cc3cn(C45CC67SSC(CO)(C(=O)N6C4Nc4ccccc45)N(C)C7=O)c4ccccc34)SSC1(CO)C(=O)N2C", "note": "(stereo unspecified)", "values": [
      {"measurement": "IC50", "result": 59, "unit": "nM"}
    ]}
  ]
}
